Where “and” joins values, the source holds several entries; their conditions need not be identical. Equal entries are not always repeated.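 Tested at 5 concentrations; 48 h exposure; 96-well plates; endpoints linearly interpolated, else capped at highest concentration. Here, GI50 denotes the concentration required for 50% inhibition of growth.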 Calls of active or inactive are those of the source. Rule as the data show it: active = GI50 up to about 1.1 µM and inactive = higher.
Assays:
Assay in all cases: NCI anticancer screen, dose series, 48 h
[1] = test system: U-251
[2] = test system: SK-MEL-2
[3] = test system: Hs-578T
[4] = test system: COLO 205
[5] = test system: LOX IMVI
[6] = test system: OVCAR-5
[7] = test system: HCT-116
[8] = test system: MDA-MB-231
[9] = test system: SF-295
[10] = test system: SF-268
[11] = test system: NCI/ADR-RES
[12] = test system: NCI-H522
[13] = test system: 786-0
[14] = test system: K562
[15] = test system: MDA-N
[16] = test system: CCRF-CEM
[17] = test system: SK-OV-3
[18] = test system: HOP-62
[19] = test system: RXF 393
[20] = test system: A498

Measured: GI50

COc1c(O)c(OC)c(C(=O)/C=C/c2ccccc2)c(O)c1OC [PEDICIN]
inactive: [1] 31.9 µM | [2] 24.9 µM | [3] 30.5 µM | [4] 41.7 µM | [5] 30.3 µM | [6] 58.9 µM | [7] 17.7 µM | [8] 21.3 µM | [9] 35.6 µM | [10] 29 µM | [11] 18.2 µM | [12] 16 µM | [13] 32.4 µM | [14] 40.6 µM | [15] 20.9 µM | [16] 94.6 µM | [17] > 100 µM

CC(=O)C1C(=O)C(=O)N(c2cccc(C)c2C)C1=O (stereo unspecified)
inactive: [2] > 100 µM | [4] > 100 µM | [5] > 100 µM | [6] > 100 µM | [7] > 100 µM | [18] > 100 µM | [8] > 100 µM | [9] > 100 µM | [11] > 100 µM | [13] > 100 µM | [15] > 100 µM | [17] > 100 µM

COC(=O)c1c[nH]c(=O)[nH]c1=O [ISOOROTIC ACID METHYL ESTER]
inactive: [2] > 100 µM | [3] > 100 µM | [4] > 100 µM | [5] > 100 µM | [6] > 100 µM | [7] > 100 µM | [9] > 100 µM | [10] > 100 µM | [11] > 100 µM | [12] > 100 µM | [13] > 100 µM | [14] > 100 µM | [15] > 100 µM | [16] > 100 µM

CN1C(=O)[C@@H]2N(CSC2(C)C)C1=S
inactive: [1] > 100 µM | [2] > 100 µM | [19] > 100 µM | [4] > 100 µM | [6] > 100 µM | [7] > 100 µM | [18] > 100 µM | [8] > 100 µM | [9] > 100 µM | [10] > 100 µM | [11] > 100 µM | [12] 29.1 µM | [13] > 100 µM | [14] 69.7 µM | [15] > 100 µM | [20] > 100 µM | [17] > 100 µM

Cc1ccc(S(=O)(=O)Nn2c(-c3ccccc3)c(C#N)c(-c3ccc(Cl)cc3)c(C#N)c2=O)cc1
inactive: [1] 21.5 µM | [2] 20.2 µM | [19] 25.2 µM | [4] 24.5 µM | [5] 21.4 µM | [6] 47 µM | [7] 18.9 µM | [18] 30.1 µM | [8] 20 µM | [9] 26.8 µM | [13] 6.79 µM | [14] 33.7 µM | [15] 28.4 µM | [16] 20.4 µM | [20] 21.8 µM | [17] 35.4 µM

C[n+]1cc(C(O)c2ccc3c(c2)OCO3)c2ccccc2c1 (stereo unspecified)
inactive: [1] 27 µM | [2] 26.2 µM | [19] 14.1 µM | [4] 33.2 µM | [5] 46 µM | [6] > 100 µM | [7] 28.4 µM | [18] 37.7 µM | [9] 28.6 µM | [10] 28.6 µM | [12] 16 µM | [13] 36.5 µM | [14] 25.1 µM | [16] 29.9 µM | [20] 29.9 µM | [17] 45.5 µM

O/N=N/c1ccc(-c2ccccc2)cn1
inactive: [1] 15.7 µM | [2] 31.6 µM | [19] 1.38 µM | [3] 23.8 µM | [4] 15 µM | [5] 6.21 µM | [6] 20.3 µM | [7] 9.08 µM | [18] 3.45 µM | [8] 28.6 µM | [9] 8.13 µM | [10] 4.59 µM | [11] 8.77 µM | [12] 18.8 µM | [13] 6.38 µM | [14] 19.6 µM | [16] 2.2 µM | [20] 13 µM | [17] 20.3 µM

COc1ccc2c(c1)CCC1C3(CCCC21C)OCCO3 (stereo unspecified)
inactive: [1] 15.9 µM | [2] 4.7 µM | [19] 13.7 µM | [4] 17.9 µM | [5] 15.9 µM | [6] 27 µM | [7] 16.8 µM | [18] 13.8 µM | [9] 19.3 µM | [10] 6.9 µM | [12] 15.7 µM | [13] 18.5 µM | [14] 15.4 µM | [16] 16.9 µM | [20] 29.6 µM | [17] 24 µM

O=C(O)c1cccc(/C=C/c2ccccc2)c1
inactive: [1] > 100 µM | [2] > 100 µM | [19] > 100 µM | [3] > 100 µM | [4] > 100 µM | [5] > 100 µM | [6] > 100 µM | [7] > 100 µM | [18] > 100 µM | [8] > 100 µM | [9] > 100 µM | [10] > 100 µM | [11] > 100 µM | [12] > 100 µM | [13] > 100 µM | [16] > 100 µM | [20] > 100 µM | [17] > 100 µM

COc1ccc(CN2C(=O)[C@@H]3Cc4c(OC)c(C)c(OC)c(OC)c4[C@H](/C2=C\c2cc(OC)c(OC)c(C)c2OC)N3C(=O)OC(C)C)cc1
inactive: [1] > 100 µM | [2] 91.8 µM | [19] 80.4 µM | [4] 12.4 µM | [5] 43 µM | [6] > 100 µM | [7] 9.66 µM | [18] 65 µM | [9] 96.2 µM | [10] > 100 µM | [12] 8.75 µM | [13] > 100 µM | [14] 25.3 µM | [16] 35.4 µM | [20] 27.3 µM | [17] 32.5 µM

Nc1ncnc2c1ncn2C1CC(O)C(CO)O1 (stereo unspecified)
inactive: [1] > 100 µM | [2] > 100 µM | [19] > 100 µM | [4] > 100 µM | [5] > 100 µM | [6] > 100 µM | [7] > 100 µM | [18] > 100 µM | [8] > 100 µM | [9] > 100 µM | [10] > 100 µM | [11] > 100 µM | [12] > 100 µM | [13] > 100 µM | [14] > 100 µM | [15] > 100 µM | [16] > 100 µM and 70.5 µM | [20] > 100 µM | [17] > 100 µM

Cc1cccc2[s+]snc12
inactive: [1] > 100 µM | [2] > 100 µM | [19] 47.3 µM | [4] 23.9 µM | [5] 49.5 µM | [6] > 100 µM | [7] > 59.4 µM | [18] > 100 µM | [9] > 100 µM | [10] > 100 µM | [12] 18.4 µM | [13] > 76.9 µM | [14] 24.9 µM | [16] 23.9 µM | [20] > 100 µM | [17] > 100 µM
